Data as given in patent US5635486A, “Ophthalmic composition comprising a sleep adjusting substance” (priority 1990, dated 1997).
Like-named read-outs stand apart in the source and are kept apart here.

Legend:
[1] = into a lateral ventricle, rat; cited from earlier work
mice = assay: Locomotor activity of mice after instillation of ophthalmic medicament to the eye (Automex, total activity ratio per hour vs saline); assay type: in vivo, mouse (ICR male); details: for time when the mice started to move / total activity ratio / locomotor activity (in words) / Total Activity ratio per hour / pain or itch in the eyes as cause of the sleep inhibition: instilled to mouse eye; for sleep inducing or inhibiting activity (in words): by instillation to mouse eye; for Total Activity ratio per hour: 19:30-20:30
Description: Three ICR male mice were put in a cage and bred under the condition of a day-and-night cycle of every 12 hours (the daytime: from 7:35 to 19:35; the nighttime: from 19:35 to 7:35) for an experiment.
In this manner, the mice were habituated to the instillation by administering the saline every day. After the same activity pattern appeared for two days continuously, an ophthalmic medicament containing a desired sleep adjusting substance was instilled for consecutive two days. The ophthalmic medicament was prepared by dissolving the sleep adjusting substance in saline. […] The locomotor activity (unit: count) of mice was measured every 10 minutes by using a measuring device for the locomotor activity of an experimental animal "Automex" (produced by Tokai Irika). The locomotor activity was measured by putting a mouse on the measuring device. Every time any of the mice moved, a counter of the device cumulated the number of the movements. Thus, the larger cumulated number reflected more energetic activity. Such a measurement was conducted twice (for two days). An average value of the locomotor activity at each time was calculated and the results were plotted to obtain a graph, with time as the abscissas and the average locomotor activity as the ordinates. This graph depicts an activity pattern of the mice as a function of an administration of the ophthalmic medicament. A total of the locomotor activity (i.e., an area below the curve in the graph) per one hour between 19: 30 which is 30 minutes after the administration and 20:30 was calculated. In the same manner, as for the mice with the administration of saline alone, a total locomotor activity per the same one hour period as above was calculated. The ratio (%) of the calculated total locomotor activity per one hour of the mice with saline alone to that of the mice with the administration of the ophthalmic medicament (hereinafter called the "total activity ratio") was obtained. The mice whose activity patterns were not stable during the habituation to the administration of saline were not used in the following examples.

[2] = cited from earlier work; for sleep effect: species and route not stated
[3] = cited from earlier work
neurons = details: cited from earlier work
[4] = cited from earlier work; remark: listed apart in the source
human = details: cited from earlier work
animal = details: in an animal; cited from earlier work
[5] = into a cerebral ventricle, rabbit; cited from earlier work
[6] = injected into an eyeball; axonal flow; cited from earlier work
[7] = administered into a cerebral ventricle

Compound: Nc1ncnc2c1ncn2[C@@H]1O[C@H](CO)[C@@H](O)[C@H]1O [Adenosine, adenosine]
- sleep effect [1]: induce non-REM sleep

Compound: CCCCC[C@H](O)/C=C/[C@H]1C(=O)C[C@H](O)[C@@H]1C/C=C\CCCC(=O)O [PGD2, prostaglandin D2]
- time when the mice started to move (mice; 100 μM): shifted backward
- total activity ratio (mice; 100 μM, vs saline control): 78%
- sleep effect [2]: strong sleep inducing substance

Compound: CCCCC[C@H](O)/C=C/[C@H]1[C@H](O)CC(=O)[C@@H]1C/C=C\CCCC(=O)O [PGE2, prostaglandin E2]
- sleep effect [2]: inhibits sleep
- sleep effect ([2]; listed as prostaglandin E2): sleep inhibiting activity

Compound: C1CCNCC1 [Piperidine, piperidine]
- total activity ratio (mice; 100 μM, vs saline control): 72%
- sleep effect [2]: sleep inducing activity

Compound: O=c1cc[nH]c(=O)[nH]1 [Uracil, uracil, reference compound]
- locomotor activity (in words) (mice; 100 μM): did not decrease

Compound: O=c1ccn([C@@H]2O[C@H](CO)[C@@H](O)[C@H]2O)c(=O)[nH]1 [Uridine, uridine]
- sleep inducing or inhibiting activity (in words) (mice; 100 μM): showed a sleep inducing activity
- Total Activity ratio per hour (mice; 10 μM): 63 % of control
- Total Activity ratio per hour (mice; 30 μM): 57 % of control
- locomotor activity (in words) (mice; 100 μM): remarkably decreased
- time when the mice started to move (mice; 100 μM): shifted backward
- Total Activity ratio per hour (mice; 100 μM): 53 % of control
- sleep effect ([3]; injection of only 10 pmole into a cerebral ventricle): induces non-REM sleep
- excitation of the neurons (neurons): induces or inhibits excitation of the neurons

Compound: Nc1ccn([C@@H]2O[C@H](CO)[C@@H](O)[C@H]2O)c(=O)n1 [cytidine]
- sleep inducing or inhibiting activity (in words) (mice; 100 μM): can inhibit sleep
- locomotor activity (in words) (mice; 100 μM): completely disappeared temporarily after the instillation
- pain or itch in the eyes as cause of the sleep inhibition (mice; 100 μM): not caused by a pain or an itch in the eyes
- time when the mice started to move (mice; 100 μM): advanced
- total activity ratio (mice; 100 μM, vs saline control): 127%
- arousal hours [3, 7]: increase arousal hours
- total sleep hours [3, 7]: decrease total sleep hours

Compound: N[C@@H](Cc1c[nH]c2ccccc12)C(=O)O [tryptophan]
- effectiveness of oral administration [4]: somewhat effective

Compound: arginine vasotocin [AVT]
- sleep effect (human; in a human): REM sleep
- amount of serotonin in the brain ([2]; mechanism of sleep induction): increasing the amount of serotonin in the brain
- sleep effect (animal): induces non-REM sleep

Compound: delta-sleep-inducing peptide [DSIP]
- sleep inducing or inhibiting activity (in words) (mice; 100 μM): exerted a sleep inhibiting activity
- pain or itch in the eyes as cause of the sleep inhibition (mice; 100 μM): certainly not due to any pain or itch in the eyes
- total activity ratio (mice; 100 μM in saline containing 0.1% bovine serum albumin): 130%
- sleep effect [5]: induce sleep
- anti-stress activity (human; administered to a human): anti-stress activity such as causing sleep inhibition

Compound: horseradish peroxidase: an enzyme with a molecular weight of about 40,000, frequently used as a tracer
- uptake by ganglion cells and transport to the suprachiasmatic nucleus [6]: uptaken by the ganglion cells, and then transported to the suprachiasmatic nucleus through the axonal flow
